Test results reported in patent publication US20070275100A1, “Use of gaseous nitric oxide as an anti-cancer agent” (priority 1998, published 2007).

Columns and labels:
HTB-58 = test: MTS cell proliferation assay, 25,000 ppm gNO (Example 4), HTB-58; assay type: cell-based, human
Excerpt: (§1) The purpose of this example is to illustrate the tumorcidal activity of high-dosage gNO. We examined the cellular sensitivity to 25,000 ppm of gNO on 5 non-small cell lung cancer (NSCLC) cells lines by an MTS cell proliferation assay.
(§2) Human lung cancer cell lines A549, NCI-H23, NCI-H460, HTB-58, H2170, and H441 (commercially available from American Type Culture Collection (“ATCC”), Manassas, Va.) were maintained in culture medium recommended by ATCC. All media were supplemented with 1% penicillin/streptomycin and 10% fetal bovine serum (commercially available from Invitrogen Gibco-BRL, Burlington, Ontario, Canada). […]
(§3) After 24 hours, the A549, NCI-H23, NCI-H460, HTB-58, H2170 and H441 cells were treated with 25,000 ppm gNO or air (control) for 1 minute, 3 minutes, 6 minutes, 9 minutes, 10 minutes, 20 minutes, and 30 minutes. Immediately following treatment, the viability of the cells was determined using a colorimetric MTS (3-(4,5-dimethylthiazol-2-yl)-5-(3-carboxymethoxyphenyl)-2-(4-sulfophenyl)-2H-tetrazolium, inner salt) cell proliferation assay (commercially available as the CellTiter 960 Aqueous One Solution Cell Proliferation Assay (MTS) from Promega, Madison, Wis., USA) according to the manufacturer's protocol. […] Absorbance was measured at 490 nm for each well using a micro-plate reader (commercially available from Dynex Technologies, Chantilly, Va., USA). […]

[1] = test system: normal human endothelial lung vascular cells (NHVE); test: Viability under 25,000 ppm gNO (Example 5), NHVE; assay type: cell-based
Description: (§4) After 24 hours, the A549, NCI-H23, NCI-H460, HTB-58, H2170 and H441 cells were treated with 25,000 ppm gNO or air (control) for 1 minute, 3 minutes, 6 minutes, 9 minutes, 10 minutes, 20 minutes, and 30 minutes. Immediately following treatment, the viability of the cells was determined using a colorimetric MTS (3-(4,5-dimethylthiazol-2-yl)-5-(3-carboxymethoxyphenyl)-2-(4-sulfophenyl)-2H-tetrazolium, inner salt) cell proliferation assay (commercially available as the CellTiter 960 Aqueous One Solution Cell Proliferation Assay (MTS) from Promega, Madison, Wis., USA) according to the manufacturer's protocol. Briefly, 20 mL of MTS solution was added to each well and the cells were incubated for 2 hours at 37° C. Absorbance was measured at 490 nm for each well using a micro-plate reader (commercially available from Dynex Technologies, Chantilly, Va., USA). The relative percentage of cell survival (viability) was calculated by dividing the absorbance of treated cells by that of control cells for each experimental time point.
The purpose of this example is to illustrate the effects on normal human cell lines compared to the effects on cancerous cell lines of high-dosage gNO. The above study was repeated. […]

A549 = test: MTS cell proliferation assay, 25,000 ppm gNO (Example 4), A549; assay type: cell-based, human
Excerpt: as §1, §2, §3

[2] = test system: extra cellular M. tuberculosis; test: Exposure of extracellular M. tuberculosis to NO; assay type: cell-based; conditions: exogenous NO
Excerpt: Further, it may be inferred that the large population of extracellular bacilli in patients with cavitary pulmonary tuberculosis are also vulnerable to exogenous (inhaled) NO.

[3] = test system: non-small cell lung cancer (NSCLC) cells lines; test: MTS cell proliferation assay, 25,000 ppm gNO, NSCLC cell lines taken together (Examples 4 and 5); assay type: cell-based, human
Excerpt: as §1
Human lung cancer cell lines A549, NCI-H23, NCI-H460, HTB-58, H2170, and H441 (commercially available from American Type Culture Collection (“ATCC”), Manassas, Va.) were maintained in culture medium recommended by ATCC. All media were supplemented with 1% penicillin/streptomycin and 10% fetal bovine serum (commercially available from Invitrogen Gibco-BRL, Burlington, Ontario, Canada). All cell lines were incubated in a humidified incubator at 37° C. supplied with 5% carbon dioxide. The cell lines were tested regularly for the absence of Mycoplasma infections. The cells were routinely maintained in 25 cm tissue culture flasks (commercially available from BD Biosciences Discovery Labware, Oakville, Ontario, Canada) and were harvested by 0.25% trypsin (commercially available from Invitrogen-Gibco-BRL) treatment when they were in a logarithmic phase of growth for all experiments. […]
as §4, with “Briefly, 20 mL of MTS solution was added to each well and the cells were incubated for 2 hours at 37° C.” left out, “point. […]” for “point.”

## [N]=O [gNO, nitric oxide]
HTB-58
  IC50 (exposure time): about 7 minutes
[1]; 6 minutes
  killing of normal endothelial cells: rapidly killed
[1]; after 6 minutes, FIG. 8 B
  viability: less than 10%
A549
  IC50 (exposure time): about 3 minutes
[2]
  mycobacteriocidal action: powerful dose-dependent and time-dependent mycobacteriocidal action
[3]; Homo sapiens, 0.15 h, at 9 minutes, read-out: viability, mean value of the other three NSCLC lines
  viability at 25000 ppm: 10.7 ± 2.08%
[3]; between 6 and 9 minutes, Example 4
  cells killed, all five cancer cell lines: 75-95%
[3]; between about 6 and about 9 minutes, repeat study, Example 5
  cells killed, all five cancer cell lines: 75-95%
